In article PMC5785997, “2-Phenylquinazolinones as dual-activity tankyrase-kinase inhibitors” (Scientific Reports, 2018):
Like-named read-outs stand apart in the source and are kept apart here. Values belong to the molecule of their own block, whether it stands above or below them.

Legend:
Format in all cases: biochemical
[1] = biological target: TNKS2 (Homo sapiens, UniProt Q9H2K2); assay: NAD+ quantification activity assay, TNKS2
Method: The activity assay used to measure the potency of the compounds against TNKS2 is based on the quantification of NAD^+[38]. The reactions were carried out in 96-well plate (Greiner bio-one, U-shaped) and the conditions were the same as reported earlier (Table S5)[24].
The compounds were stored in 100% DMSO at −20 °C. All the compounds were diluted in the TNKS2 assay buffer (50 mM Bis-Tris Propane, 0.5 mM TCEP, 0.01% Triton-100x). Control reactions were used to exclude the effect of compound fluorescence and quenching from the calculations. […] The pIC50 values were calculated and fitted with nonlinear regression using 4-parameters with GraphPad Prism (version 5.0 for windows).
Protein (nM) NAD+ (nM) Incubation Buffer
Kinase [ATP] Substrate Incubation Reaction buffer

[2] = biological target: CDK9 (Homo sapiens, UniProt P50750); assay: Kinase functional assay (mobility shift), CDK9; conditions: for CDK9 inhibition-% / inhibition at 10 µM: 10 µM compound; for CDK9 inhibition-%: Table 1; for inhibition at 1 µM: 1 µM compound, Table S3; for inhibition at 1 µM / inhibition at 10 µM: read-out: CDK9 (% Inhib.); for inhibition at 10 µM: Table S4
[3] = tested on: Akt; assay: Kinase functional assay (mobility shift), Akt; conditions: for Akt inhibition-%: Table 1; for IC50: dose response
[4] = biological target: ERK2 (Homo sapiens, UniProt P28482); assay: Kinase functional assay (mobility shift), ERK2 (p42); conditions: for p42 inhibition-% / inhibition at 10 µM: 10 µM compound; for p42 inhibition-%: Table 1; for inhibition at 1 µM: 1 µM compound, Table S3; for inhibition at 1 µM / inhibition at 10 µM: read-out: ERK2 (% Inhib.); for inhibition at 10 µM: Table S4
[5] = biological target: p38α (Homo sapiens, UniProt Q16539); assay: Kinase functional assay (mobility shift), p38α; conditions: for p38 inhibition-%: Table 1; for inhibition at 1 µM / inhibition at 10 µM: read-out: p38α (% Inhib.)
[6] = biological target: GSK3β (Homo sapiens, UniProt P49841); assay: Kinase functional assay (mobility shift), GSK3β; conditions: for GSK3β inhibition-% / inhibition at 10 µM: 10 µM compound; for GSK3β inhibition-%: Table 1; for inhibition at 1 µM: 1 µM compound, Table S3; for inhibition at 1 µM / inhibition at 10 µM: read-out: GSK3β (% Inhib.); for inhibition at 10 µM: Table S4
[7] = biological target: T1, human CK2α-1 (Homo sapiens, UniProt P68400); assay: ADP-Glo kinase assay, CK2; conditions: for CK2 inhibition-% / inhibition at 10 µM: 10 µM compound; for CK2 inhibition-%: Table 1; for inhibition at 1 µM: 1 µM compound, Table S3; for inhibition at 1 µM / inhibition at 10 µM: read-out: CK2 (% Inhib.); for inhibition at 10 µM: Table S4
T1 construct: purchased Promega V4,482
Method: The kinase functional assays were performed using a combination of kinase and 1.5 μM peptide substrate in the presence of ATP. The reaction mixture was analyzed on the Caliper LabChip 3,000 (Caliper, Hopkinton, MA) by the electrophoretic mobility shift of the fluorescent substrate and phosphorylated product. For the inhibition of human CK2α-1, the experiments were carried out with ADP-Glo kinase Assay Kit (Promega V9,101). Assays are described in detail in the Supplementary Methods and Table S6. […]
Dose-response curves were generated to determine the concentration required to inhibit 50% of kinase activity (IC50). Staurosporine (Invitrogen BP2,451) was included as a positive control of each enzymatic assay. The profiling of the kinases was done at 1 and at 10 μM of the compound.
For the inhibition of human CK2α-1, the experiments were carried out in a white 384-microplate low flange (Corning 3,572) with ADP-Glo kinase Assay Kit (Promega V9101) and CK2α-1 Kinase Enzyme System (Promega V4,482). The test compounds and standard staurosporine (Invitrogen BP2451), 25 ng/well CK2α-1 kinase and 50 µM ATP were added in a final volume of 10 µl/well using reaction buffer supplied by kit as assay buffer. The reaction mixture was incubated in gentle shaking for 60 minutes at room temperature. After the incubation 10 µl of ADP-Glo reagent was added and incubated in gentle shaking for 40 minutes at room temperature. Finally 20 µl of Kinase Detection Reagent was added and the plate was incubated on a shaker for 30 minutes at room […]
temperature. […]

[8] = Table 1, read-out: TNKS2 IC50 (shown for comparison)
[9] = dose response, read-out: CDK9 IC50
[10] = compound does not completely inhibit the enzyme at concentrations used, IC50 extrapolated by the analysis software, read-out: CDK9 IC50 (extrapolated)

T1 sequence (P68400 whole entry): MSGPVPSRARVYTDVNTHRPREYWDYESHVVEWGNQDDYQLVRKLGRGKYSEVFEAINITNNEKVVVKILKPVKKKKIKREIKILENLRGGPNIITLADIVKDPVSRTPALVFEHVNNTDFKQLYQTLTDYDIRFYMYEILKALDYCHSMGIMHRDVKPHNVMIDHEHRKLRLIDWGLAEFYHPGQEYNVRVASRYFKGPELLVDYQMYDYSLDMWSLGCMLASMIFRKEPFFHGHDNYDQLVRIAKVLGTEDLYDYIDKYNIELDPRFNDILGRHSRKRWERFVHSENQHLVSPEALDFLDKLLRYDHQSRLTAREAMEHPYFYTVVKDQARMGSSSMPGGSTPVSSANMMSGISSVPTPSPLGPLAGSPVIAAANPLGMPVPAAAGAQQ
Chain of p38α (Q16539 whole entry): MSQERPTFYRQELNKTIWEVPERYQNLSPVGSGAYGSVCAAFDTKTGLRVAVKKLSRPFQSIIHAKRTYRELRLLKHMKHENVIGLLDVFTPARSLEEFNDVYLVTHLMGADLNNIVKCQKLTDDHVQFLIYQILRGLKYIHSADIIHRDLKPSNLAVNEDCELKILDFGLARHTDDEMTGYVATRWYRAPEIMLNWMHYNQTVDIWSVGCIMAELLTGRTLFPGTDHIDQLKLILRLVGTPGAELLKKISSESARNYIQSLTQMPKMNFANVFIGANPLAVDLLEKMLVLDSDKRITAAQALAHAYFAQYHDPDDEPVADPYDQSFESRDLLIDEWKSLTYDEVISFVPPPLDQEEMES
Chain of TNKS2 (Q9H2K2 959-1164): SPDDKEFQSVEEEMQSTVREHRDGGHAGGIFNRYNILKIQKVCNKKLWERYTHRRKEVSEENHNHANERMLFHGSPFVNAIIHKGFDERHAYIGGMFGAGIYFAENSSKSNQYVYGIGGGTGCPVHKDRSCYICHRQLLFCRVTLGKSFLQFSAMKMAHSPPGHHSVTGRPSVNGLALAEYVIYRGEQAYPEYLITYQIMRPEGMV
Chain of CDK9 (P50750 whole entry, species assumed): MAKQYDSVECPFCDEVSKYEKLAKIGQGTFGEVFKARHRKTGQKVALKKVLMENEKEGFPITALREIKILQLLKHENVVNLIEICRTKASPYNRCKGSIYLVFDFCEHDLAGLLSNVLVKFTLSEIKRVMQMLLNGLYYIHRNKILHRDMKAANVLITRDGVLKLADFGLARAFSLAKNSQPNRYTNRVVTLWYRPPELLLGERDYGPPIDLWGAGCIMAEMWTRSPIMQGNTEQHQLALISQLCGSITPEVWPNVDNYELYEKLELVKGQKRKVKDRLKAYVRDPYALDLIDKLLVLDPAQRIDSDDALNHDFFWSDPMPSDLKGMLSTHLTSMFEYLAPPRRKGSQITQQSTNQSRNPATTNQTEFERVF
Chain of CDK9 (O60563 whole entry partner, species assumed): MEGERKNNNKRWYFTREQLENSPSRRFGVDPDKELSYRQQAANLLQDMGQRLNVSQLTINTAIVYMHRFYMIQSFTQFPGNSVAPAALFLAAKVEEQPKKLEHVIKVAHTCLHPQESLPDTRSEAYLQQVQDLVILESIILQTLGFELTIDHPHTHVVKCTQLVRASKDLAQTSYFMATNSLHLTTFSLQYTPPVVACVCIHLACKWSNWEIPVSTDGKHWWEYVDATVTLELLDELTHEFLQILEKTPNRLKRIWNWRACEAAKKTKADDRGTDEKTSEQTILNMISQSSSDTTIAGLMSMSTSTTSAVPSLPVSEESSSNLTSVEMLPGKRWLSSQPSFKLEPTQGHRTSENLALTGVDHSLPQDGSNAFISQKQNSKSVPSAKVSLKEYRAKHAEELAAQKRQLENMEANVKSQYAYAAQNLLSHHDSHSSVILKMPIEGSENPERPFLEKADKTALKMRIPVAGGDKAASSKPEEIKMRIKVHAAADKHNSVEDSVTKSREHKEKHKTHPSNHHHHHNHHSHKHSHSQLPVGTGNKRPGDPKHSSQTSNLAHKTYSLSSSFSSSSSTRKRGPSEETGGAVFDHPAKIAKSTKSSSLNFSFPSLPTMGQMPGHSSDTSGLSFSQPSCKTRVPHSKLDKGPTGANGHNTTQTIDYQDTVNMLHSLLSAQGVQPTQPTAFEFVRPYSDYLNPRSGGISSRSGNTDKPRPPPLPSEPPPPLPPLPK
Chain of ERK2 (P28482 whole entry, species assumed): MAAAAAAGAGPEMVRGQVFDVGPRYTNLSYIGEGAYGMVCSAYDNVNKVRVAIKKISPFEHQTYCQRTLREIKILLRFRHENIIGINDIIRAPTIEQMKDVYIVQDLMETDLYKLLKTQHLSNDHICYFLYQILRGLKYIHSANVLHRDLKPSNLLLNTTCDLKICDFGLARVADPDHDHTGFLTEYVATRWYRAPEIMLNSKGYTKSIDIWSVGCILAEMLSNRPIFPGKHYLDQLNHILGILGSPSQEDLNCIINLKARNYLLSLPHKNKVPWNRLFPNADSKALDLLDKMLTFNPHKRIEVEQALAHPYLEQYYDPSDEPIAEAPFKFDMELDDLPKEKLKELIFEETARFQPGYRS
Chain of GSK3β (P49841 whole entry, species assumed): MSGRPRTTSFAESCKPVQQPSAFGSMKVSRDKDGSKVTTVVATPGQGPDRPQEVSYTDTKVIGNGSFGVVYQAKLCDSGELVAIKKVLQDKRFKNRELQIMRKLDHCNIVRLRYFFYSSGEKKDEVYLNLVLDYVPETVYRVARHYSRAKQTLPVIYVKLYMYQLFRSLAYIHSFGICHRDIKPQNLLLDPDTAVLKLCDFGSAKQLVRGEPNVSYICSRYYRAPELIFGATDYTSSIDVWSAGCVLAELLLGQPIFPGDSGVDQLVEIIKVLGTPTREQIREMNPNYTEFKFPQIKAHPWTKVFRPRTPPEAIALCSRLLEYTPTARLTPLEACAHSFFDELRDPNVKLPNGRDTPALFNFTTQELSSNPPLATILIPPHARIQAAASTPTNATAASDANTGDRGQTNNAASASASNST

SMILES: C[C@]1(c2ccc(-c3nc4ccccc4c(=O)[nH]3)cc2)NC(=O)NC1=O [(+)-8]
IC50 ([1]; TNKS2 IC50, NAD+ 500 nM): 6.7 nM

SMILES: O=c1[nH]c(-c2ccc3[nH]ncc3c2)nc2ccccc12 [C00001]
IC50 [1, 8]: 400 nM
CDK9 inhibition-% [2]: 34%
Akt inhibition-% ([3]; 10 µM compound): 1%
p42 inhibition-% [4]: 14%
p38 inhibition-% ([5]; 10 µM compound): 3%
GSK3β inhibition-% [6]: 57%
CK2 inhibition-% [7]: 12%

SMILES: O=c1[nH]c(-c2ccc(N3CCCCC3)cc2)nc2ccccc12 [C00002]
IC50 [1, 8]: 15 nM
CDK9 inhibition-% [2]: 31%
Akt inhibition-% ([3]; 10 µM compound): 2%
p42 inhibition-% [4]: 3%
p38 inhibition-% ([5]; 10 µM compound): 3%
GSK3β inhibition-% [6]: 11%
CK2 inhibition-% [7]: 1%

SMILES: Oc1nc(-c2ccc(C(F)(F)F)cc2)nc2c1CSCC2 [Compound 1, XAV939, reference compound]
inhibition at 1 µM [2]: 11 ± 3%
inhibition at 10 µM [2]: 12 ± 1%
AKT (% Inhib.) ([3]; 1 µM compound, Table S3): 1 ± 1%
AKT (% Inhib.) ([3]; 10 µM compound, Table S4): 7 ± 4%
inhibition at 1 µM [4]: 2 ± 2%
inhibition at 10 µM [4]: 2 ± 1%
inhibition at 1 µM [5]: 2 ± 2%
inhibition at 10 µM [5]: 3 ± 2%
inhibition at 1 µM [6]: 1 ± 1%
inhibition at 10 µM [6]: 7 ± 1%
inhibition at 1 µM [7]: 2 ± 1%
inhibition at 10 µM [7]: 1 ± 1%

SMILES: O=c1[nH]c(-c2ccccn2)nc2ccccc12 [Compound 11]
IC50 ([1]; TNKS2 IC50, as quoted in text): 2400 nM

SMILES: Nc1ccccc1-c1nc2ccccc2c(=O)[nH]1 [Compound 14]
IC50 ([1]; TNKS2 IC50, NAD+ 500 nM): 700 nM

SMILES: COc1ccccc1-c1nc(O)c2ccccc2n1 [Compound 18]
IC50 ([1]; TNKS2 IC50, NAD+ 500 nM): 10000 nM

SMILES: O=c1[nH]c(-c2cccc3cnccc23)nc2ccccc12 [Compound 19]
IC50 ([1]; TNKS2 IC50, NAD+ 500 nM): 42300 nM

SMILES: O=c1[nH]c(-c2ccc3[nH]ncc3c2)nc2ccccc12 [Compound 20]
IC50 ([1]; TNKS2 IC50, NAD+ 500 nM): 400 nM
inhibition at 1 µM [2]: 7 ± 4%
inhibition at 10 µM [2]: 34 ± 4%
AKT (% Inhib.) ([3]; 1 µM compound, Table S3): 1 ± 1%
AKT (% Inhib.) ([3]; 10 µM compound, Table S4): 1 ± 1%
inhibition at 1 µM [4]: 3 ± 1%
inhibition at 10 µM [4]: 14 ± 2%
inhibition at 1 µM ([5]; 1 µM compound, Table S3): 1 ± 1%
inhibition at 10 µM ([5]; 10 µM compound, Table S4): 3 ± 2%
inhibition at 1 µM [6]: 14 ± 1%
inhibition at 10 µM [6]: 57 ± 1%
inhibition at 1 µM [7]: 4 ± 3%
inhibition at 10 µM [7]: 12 ± 4%

SMILES: O=c1[nH]c(-c2cnc[nH]2)nc2ccccc12 [Compound 21]
IC50 ([1]; TNKS2 IC50, NAD+ 500 nM): 6530 nM

SMILES: COCCN1CC(=O)C(c2nc3ccccc3c(=O)[nH]2)=C1N [Compound 22]
IC50 ([1]; TNKS2 IC50, NAD+ 500 nM): 92000 nM

Other lines, results leading:

IC50 [1, 8]: 10 nM
CDK9 inhibition-% [2]: 16%
Akt inhibition-% ([3]; 10 µM compound): 48%
p42 inhibition-% [4]: 18%
p38 inhibition-% ([5]; 10 µM compound): 20%
GSK3β inhibition-% [6]: 4%
CK2 inhibition-% [7]: 2%
SMILES: CCN(CC)c1ccc(-c2nc3ccccc3c(=O)[nH]2)cc1 [C00003]

IC50 [1, 8]: 660 nM
IC50 [2, 9]: 6200 nM
SMILES: CN(CCO)c1ccc(-c2nc3cc(Cl)ccc3c(=O)[nH]2)cc1 [C00004]

IC50 [1, 8]: 16 nM
IC50 [2, 10]: 16100 nM
IC50 [3]: 13300 nM
SMILES: CN(CCO)c1ccc(-c2nc3ccccc3c(=O)[nH]2)cc1 [C00005]

IC50 [1, 8]: 1050 nM
IC50 [2, 9]: 3400 nM
p42 inhibition-% [4]: 51%
p38 inhibition-% ([5]; 10 µM compound): 45%
GSK3β inhibition-% [6]: 41%
CK2 inhibition-% [7]: 2%
SMILES: Nc1ccc(-c2nc3cc(Cl)ccc3c(=O)[nH]2)cc1 [C00006]

IC50 [2, 10]: 28300 nM
IC50 [3]: 13800 nM
SMILES: Nc1ccc(-c2nc3ccccc3c(=O)[nH]2)cc1 [C00007]
